We go through 21 compounds from patent US20070031328A1, “Radiolabeled-pegylation of ligands for use as imaging agents” (priority 2005, published 2007).

Like-named read-outs stand apart in the source and are kept apart here.

A word on the Ki: it is the dissociation constant of the complex between target and ligand, obtained from inhibition or displacement. By logP is commonly meant the decadic logarithm of the partition coefficient of the neutral form, usually between octanol and water.

The target of data set [1] is T1, Ab aggregates of AD brain homogenates (Homo sapiens, UniProt P05067).
T1 construct: to Ab aggregates of AD brain homogenates; from tissue; host or cells: post-mortem grey matter of AD patients, homogenised in PBS
T1 sequence (P05067 672-713 limits assumed): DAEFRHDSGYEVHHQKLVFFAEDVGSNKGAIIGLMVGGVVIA
Put plainly: Inhibition of [125I]IMPY binding to Aβ aggregates of AD brain homogenates. On the set-up: species or system human (AD patients). The procedure: Postmortem brain tissues were obtained from AD patients at autopsy, and neuropathological diagnosis was confirmed by current criteria (NIA-Reagan Institute Consensus Group, 1997). Homogenates were then prepared from dissected gray matters from AD patients in phosphate buffered saline (PBS, pH 7.4) at the concentration of approximately 100 mg wet tissue/ml (motor-driven glass homogenizer with setting of 6 for 30 sec).
Binding assays were carried out in 12×75 mm borosilicate glass tubes. […] The mixture was incubated at 37° C. for 2 hr and the bound and the free radioactivity were separated by vacuum filtration through Whatman GF/B filters using a Brandel M-24R cell harvester followed by 2×3 ml washes of PBS at room temperature. Filters containing the bound ^125I ligand were assayed for radioactivity content in a gamma counter (Packard 5000) with 70% counting efficiency.
Binding assays were carried out in 12×75 mm borosilicate glass tubes. […] The mixture was incubated at 37° C. for 2 hr and the bound and the free radioactivity were separated by vacuum filtration through Whatman GF/B filters using a Brandel M-24R cell harvester followed by 2×3 ml washes of PBS at room temperature. Filters containing the bound ^125I ligand were assayed for radioactivity content in a gamma counter (Packard 5000) with 70% counting efficiency. […] The results of inhibition experiments were subjected to nonlinear regression analysis using EBDA by which Ki values were calculated.

Data set [2] has as its target T1, Ab aggregates of AD brain homogenates. Particulars: [125I]IMPY, values marked as from refs (20), (6), (15); cited from earlier work.
The conditions of data set [3]: log of partition coefficient between 1-Octanol and buffer; compounds marked as from ref (20); cited from earlier work.
A short description of data set [4]: Partition coefficients, 1-octanol/buffer. It is filed as physicochemical. The following applies: log of partition coefficient between 1-Octanol and buffer (0.1 M phosphate, pH 7.4). The procedure: Partition coefficients were measured by mixing the [^18F]tracer with 3 g each of 1-octanol and buffer (0.1 M phosphate, pH 7.4) in a test tube. The test tube was vortexed for 3 min at room temperature, followed by centrifugation for 5 min. Two weighed samples (0.5 g each) from the 1-octanol and buffer layers were counted in a well counter. The partition coefficient was determined by calculating the ratio of cpm/g of 1-octanol to that of buffer. Samples from the 1-octanol layer were re-partitioned until consistent partitions of coefficient values were obtained (usually the 3rd or 4th partition). The measurement was done in triplicate and repeated three times.

Data set [5] can be described thus: Periodic HPLC injection of purified [18F]8b (second peak formation). The following applies: purified tracer injected periodically on HPLC after purification; attributed to E and Z isomers. It is filed as physicochemical. The procedure:
Radiolabeled [^18F]8b was prepared from the mesylate precursor in moderate radiochemical yield (23%) but unfortunately could not be prepared in good radiochemical purity. The formation of a second peak was evident within minutes of labeling. […] They attribute the formation of a second peak to the facile formation of E and Z isomers (30).
[^18F]8b from precursor 11: (HPLC conditions: Phenomenex Gemini C18 semi-prep column [(5.0×250 mm, 5 μm); Acetonitrile/water 60/40; flow rate 3 mL/min)
Retention time of ^18F-labeled product was 28.0 min., well separated from the major hydrolysis by-product (Rt=11.8 min.). The product was isolated in 23% radiochemical yield (decay corrected) and greater than 98% radiochemical purity. Purified [^18F]8b was injected periodically after purification. Formation of a second peak increased to 50% of the parent compound.

The mark [6] stands for this setting: 1-octanol/buffer, read-out: logP.

The compound `CN(C)c1ccc(-c2cn3cc(OCCOCCF)ccc3n2)cc1` [Compound 12b, 6-(2-fluoroethoxy-ethoxy)-2-(4-dimethylamino-)phenyl-imidazo[1,2-a]pyridine] displayed a Ki in data set [1] of 31 ± 9 nM. Regarding `CNc1ccc(/C=C/c2ccc(OCCOCCF)cc2)cc1` [Compound 1a], in data set [2], the Ki was 2.9 ± 0.2 nM. Besides, the lipophilicity (logP) in data set [3] is listed as 2.53. For the compound `CN(C)c1ccc(C=Cc2nc3ccc(OCCF)cc3o2)cc1` [Compound 8a, 6-(2-fluoroethoxy)-[2-(4-dimethylaminophenyl)-vinyl]-benzooxazol], in data set [1], the inhibition constant Ki turned out to be 12 ± 0.5 nM. For `CNc1ccc(-c2nc3ccc(OCCOCCF)cc3s2)cc1` [Compound 5a, 2-[4′-(methylamino)phenyl]-6-[2-(2-fluoroethoxy)-ethoxy]benzothiazole], the log partition coefficient (logP) in data set [4] (setting [6]) was 3.04. In data set [1], the Ki turned out to be 2.2 ± 0.5 nM. With `CN(C)c1ccc(-c2cn3cc(I)ccc3n2)cc1` [IMPY, 6-iodo-2-(4′-dimethylamino)phenyl-imidazo[1,2-a]pyridine, reference compound], in data set [4] (setting [6]), the logP turned out to be 2.19. `CNc1ccc(/C=C/c2ccc(OCCOCCOCCOCCF)cc2)cc1` [Compound 1c]: in data set [2], the inhibitory constant (Ki) was 4.4 ± 0.8 nM. In addition, the log partition coefficient (logP) in data set [3] is 2.05. In the case of `CNc1ccc(-c2nc3ccc(OCCOCCOCCF)cc3s2)cc1` [Compound 5b, 2-[4′-(methylamino)phenyl]-6-{2-[2-(2-fluoroethoxy)-ethoxy]ethoxy}benzothiazole], in data set [4] (setting [6]), the logP amounted to 3.04. Also, affinity in data set [1] was put at a Ki of 3.8 ± 0.5 nM. As to `CNc1ccc(/C=C/c2ccc(OCCOCCOCCF)cc2)cc1` [Compound 1b], the Ki in data set [2] is 6.7 ± 0.3 nM. Besides, the log partition coefficient (logP) in data set [3] was 2.41.

Compound `CN(C)c1ccc(/C=C/c2nc3ccc(OCCOCCOCCOCCOCCOCCF)cc3o2)cc1` [Compound 8c, 6-(2-(2-(2-(2-(2-(2-fluoroethoxy)-ethoxy)-ethoxy)-ethoxy)-ethoxy)-ethoxy)-[2-(4-dimethylaminophenyl)-vinyl]-benzooxazol] registered an inhibition constant Ki in data set [1] of 10 ± 0.2 nM. The same measure, in the same setting: the result for `CN(C)c1ccc(C=Cc2nc3ccc(OCCOCCOCCOCCOCCOCCOCCOCCF)cc3o2)cc1` [Compound 8d, 6-(2-(2-(2-(2-(2-(2-(2-(2-fluoroethoxy)-ethoxy)-ethoxy)-ethoxy)-ethoxy)-ethoxy)-ethoxy)-ethoxy)-[2-(4-dimethylaminophenyl)-vinyl]-benzooxazol] reads 6 ± 0.6 nM. In the case of `CNc1ccc(/C=C/c2ccc(O)cc2)cc1` [SB-13, reference compound], in data set [4], the logP turned out to be 2.36. In the case of `CNc1ccc(/C=C/c2ccc(OCCOCCOCCOCCOCCF)cc2)cc1` [Compound 1d], the inhibition constant (Ki) in data set [2] was 6.8 ± 0.8 nM. Besides, in data set [3], the log partition coefficient (logP) is reported as 2.27. Take `CNc1ccc(/C=C/c2nc3ccc(OCCF)cc3o2)cc1` [BF-168, reference compound]: the Ki in data set [2] was 6.4 nM. With `CN(C)c1ccc(C=Cc2nc3ccc(OCCOCCOCCF)cc3o2)cc1` [Compound 8b, 6-(2-(2-(2-fluoroethoxy)-ethoxy)-ethoxy)-[2-(4-dimethylaminophenyl)-vinyl]-benzooxazol], the logP in data set [4] (setting [6]) was 2.93. In addition, the Ki in data set [1] is 14.5 ± 5 nM.

In turn, `CN(C)c1ccc(-c2cn3cc(OCCOCCOCCOCCOCCOCCOCCOCCF)ccc3n2)cc1` [Compound 12e, 6-(2-fluoroethoxy-ethoxy-ethoxy-ethoxy-ethoxy-ethoxy-ethoxy-ethoxy)-2-(4-dimethylamino-) phenyl-imidazo[1,2-a]pyridine] showed a Ki in data set [1] of 387 ± 12 nM. Regarding `CNc1ccc(-c2nc3ccc(OCCOCCOCCOCCOCCOCCOCCOCCF)cc3s2)cc1` [Compound 5d, 2-[4′-(methylamino)phenyl]-6-[2-(2-{2-[2-(2-{2-[2-(2-fluoroethoxy)-ethoxy]ethoxy}ethoxy)ethoxy]ethoxy}ethoxy)ethoxy]benzothiazole], the Ki in data set [1] worked out at 9 ± 1.8 nM.

For `CN(C)c1ccc(/C=C/c2nc3ccc(OCCOCCOCC[18F])cc3o2)cc1` [[^18F]8b], the “Formation of a second peak, of the parent compound” value in data set [5] amounted to 50%. Regarding `CNc1ccc(-c2nc3ccc(OCCOCCOCCOCCOCCOCCF)cc3s2)cc1` [Compound 5c, 2-[4′-(methylamino)phenyl]-6-{2-[2-(2-{2-[2-(2-fluoroethoxy)-ethoxy]ethoxy}ethoxy)ethoxy]ethoxy}benzothiazole], the logP in data set [4] (setting [6]) stood at 2.99. The inhibition constant (Ki) in data set [1] worked out at 4.7 ± 0.9 nM. In the case of `CN(C)c1ccc(-c2cn3cc(OCCF)ccc3n2)cc1` [Compound 12a, 6-(2-fluoroethoxy)-2-(4-dimethylamino-)phenyl-imidazo [1,2-a]pyridine], in data set [1], the affinity corresponds to a Ki of 16 ± 2 nM.

On to `CN(C)c1ccc(-c2cn3cc(OCCOCCOCCOCCOCCOCCF)ccc3n2)cc1` [Compound 12d, 6-(2-fluoroethoxy-ethoxy-ethoxy-ethoxy-ethoxy-ethoxy)-2-(4-dimethylamino-)phenyl-imidazo[1,2-a]pyridine], for which the inhibitory constant (Ki) in data set [1] was 96 ± 14 nM. As to `CN(C)c1ccc(-c2cn3cc(OCCOCCOCCF)ccc3n2)cc1` [Compound 12c, 6-(2-fluoroethoxy-ethoxy-ethoxy)-2-(4-dimethylamino-)phenyl-imidazo[1,2-a]pyridine], the logP in data set [4] (setting [6]) was found to be 2.69. The compound also displayed an inhibitory constant (Ki) in data set [1] of 30 ± 2.5 nM.
